Results published in paper PMC4967898, “Peptides interfering with protein-protein interactions in the ethylene signaling pathway delay tomato fruit ripening” (Scientific Reports, 2016).
“Also recorded” adds a separate entry of the source.

Experiments:
tomato EIN2-ETR1 complex = target: T1, tomato EIN2-ETR1 complex (Solanum lycopersicum, UniProt Q41342); experiment: FRET assay of LeEIN2-LeETR1 complex formation; assay type: biochemical
T1 construct: made in house; host or cells: E. coli BL21(DE3) with pRARE (LeEIN2 fragment); E. coli (LeETR1)
T1 sequence (Q41342 1-754): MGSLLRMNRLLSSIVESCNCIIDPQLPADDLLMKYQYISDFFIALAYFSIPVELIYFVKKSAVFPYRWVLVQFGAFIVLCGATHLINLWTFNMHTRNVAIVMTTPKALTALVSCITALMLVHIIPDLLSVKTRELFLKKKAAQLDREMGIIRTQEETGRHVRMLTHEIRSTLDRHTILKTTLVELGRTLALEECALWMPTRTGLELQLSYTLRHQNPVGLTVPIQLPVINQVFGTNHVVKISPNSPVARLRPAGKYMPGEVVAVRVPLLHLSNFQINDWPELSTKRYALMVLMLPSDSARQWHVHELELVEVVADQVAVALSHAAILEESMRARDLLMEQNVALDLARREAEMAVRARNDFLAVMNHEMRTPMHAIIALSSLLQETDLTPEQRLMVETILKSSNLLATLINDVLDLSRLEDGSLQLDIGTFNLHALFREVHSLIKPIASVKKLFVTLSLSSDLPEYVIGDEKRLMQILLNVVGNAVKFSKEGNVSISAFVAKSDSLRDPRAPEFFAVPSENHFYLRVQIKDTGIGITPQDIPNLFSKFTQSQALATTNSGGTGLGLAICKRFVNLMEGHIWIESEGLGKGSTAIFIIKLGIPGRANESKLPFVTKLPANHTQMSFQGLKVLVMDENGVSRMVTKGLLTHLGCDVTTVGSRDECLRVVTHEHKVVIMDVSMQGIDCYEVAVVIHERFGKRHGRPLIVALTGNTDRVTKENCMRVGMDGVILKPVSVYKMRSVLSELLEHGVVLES
Excerpt: For this purpose, we made use of a fluorescence resonance energy transfer (FRET)-based in vitro assay, originally established for the respective Arabidopsis signaling proteins. Recombinant ethylene proteins LeETR1 and LeEIN2^462–1316 were labeled with fluorescent Alexa dyes[36] as described in the Methods section. LeETR1 was labeled with Alexa Fluor 488, while LeEIN2^462–1316 was labeled with Alexa Fluor 568. As the emission spectrum of the donor fluorophore partially overlaps with the excitation spectrum of the acceptor fluorophore, the dyes form a FRET pair and energy transfer from the donor to the acceptor fluorophore is possible when both probes get in close proximity. […] Formation of the complex is monitored by FRET from the donor molecule Alexa Fluor 488 to the acceptor molecule Alexa Fluor 568. Processes or molecules that prevent complex formation result in a reduced FRET from the donor to the acceptor, which is detected as reduced acceptor fluorescence at the emission maximum.
Quantitative analysis of inhibitory peptides on ETR1-EIN2 complex by FRET
For the FRET assay, recombinant LeETR1 was labeled with Alexa Fluor 488 succinimidyl-ester and LeEIN2^462–1316 was labeled with Alexa Fluor 568 succinimidyl-ester (both Life Technologies) in a buffer containing 50 mM potassium phosphate pH 8.0, 300 mM NaCl and 5% (v/v) glycerol following manufacturer’s protocol (MolecularProbes Protein Labeling Kit). Labeled proteins were transferred in FRET buffer containing 50 mM Tris-HCl pH 8.0, 300 mM NaCl, 0.05% (v/v) Tween 20, 5% (v/v) glycerol and mixed at a final concentration of 3.0 μM each. […] The FRET-based binding assay was carried out in 384-well microplates using an Infinite M200 Pro microplate reader (Tecan) at 455 nm excitation wavelength. Emission spectra were detected between 565 nm to 645 nm. FRET efficiencies were calculated from the maximal emission in the absence and in the presence of the supplied peptides and the half maximal inhibitor concentration IC50 was calculated as previously described.

[1] = test system: green, immature tomato fruits; experiment: Tomato fruit ripening after inhibitor treatment; assay type: in vivo, tomato (Solanum pimpinellifolium)
Excerpt: To further investigate the potential of NOP-1 for agricultural applications, we tested the effect of the NOP-1 peptide on tomato fruit ripening in comparison to other known inhibitors of ethylene responses. To this end we tested […] (MCP) and aminoethoxyvinylglycine (AVG). MCP is a known inhibitor of ethylene signaling blocking ethylene binding at the receptor proteins, whereas AVG blocks ethylene production in the plant by competitive inhibition of ACC synthases. To monitor inhibition of the fruit ripening process, we treated green, immature tomato fruits with 200 μM NOP-1, MCP or AVG, respectively and documented the fruit ripening process for 20 days. Figure 3 compares the effect of the different inhibitor treatments on tomato fruits to controls lacking the inhibitory treatment that contain either buffer alone or a random sequence control peptide (ROP-1). […] The bioassays underline the high inhibitory potential of NOP-1 on the ripening process compared to the well-known and efficient inhibitors of ethylene responses.
Inhibitor-treatment of tomato fruits
Aminoethoxyvinyl glycine (AVG) was purchased from Sigma-Aldrich, St Louis, MO (purity ~95%). SmartFresh^SM (AgroFresh, Spring House, PA) was used as sugar-based powder formulation of 1-MCP. Concentration of 1-MCP was calculated according to the percentage of active ingredient (0.14%) and release from the SmartFresh^SM powder. For comparison concentration of all inhibitors are expressed in terms of molarity. For treatment of tomato fruits with NOP-1, AVG and MCP, inhibitors were dissolved in the FRET buffer described in the previous section to a final concentration of 200 μM. Green tomato fruits (Solanum pimpinellifolium) from the same estimated developmental stage were harvested from the panicle and water-cleaned. 300 μL of the inhibitor solution was applied onto the tomato surface with a brush and the fruits were air-dried for 30 min. As an alternative application, tomato fruits were plunged into 2 mL of the inhibitor solution and incubated for 30 min in this solution or 200 μL of the peptide-containing solution were carefully injected into the tomato tissue by a hypodermic syringe. Three individual tomato fruits were treated for the different applications of the peptide in order to document the ripening process. After inhibitor-treatment tomato fruits were transferred to a vial closed with aluminum foil and stored in the dark at room temperature. Maturation process was documented every second day for at least 20 days. For measurement of ethylene production, green tomato fruits were treated as described above.

Arabidopsis EIN2-ETR1 = conditions: proteins from Arabidopsis, cited from earlier work
Excerpt: Studies on the related tomato proteins in this work emphasize that NOP-1 follows the same inhibitory mechanism also in other plants.

Question: For CC(C)C[C@H](NC(=O)[C@H](CCCNC(=N)N)NC(=O)[C@H](CCCNC(=N)N)NC(=O)[C@H](CCCCN)NC(=O)[C@H](Cc1ccc(O)cc1)NC(=O)[C@H](CCCNC(=N)N)NC(=O)[C@H](CCCCN)NC(=O)[C@@H](N)CC(C)C)C(N)=O [NOP-1, LKRYKRRL-NH2], which “FRET efficiency (of the value observed in the absence of NOP-1)” value (tomato EIN2-ETR1 complex; 100 μM NOP-1, LeETR1-Alexa Fluor 488 and LeEIN2^462–1316-Alexa Fluor 568, 3 μM each, 50 mM Tris-HCl pH 8.0, 300 mM NaCl, 0.05% Tween 20, 5% glycerol, excitation 455 nm, emission 565–645 nm) is on record?
Answer: The value was “about 9%”.

Question: And the “effect on tomato EIN2-ETR1 complex formation” value (tomato EIN2-ETR1 complex; FRET assay, 100 μM peptide where stated, LeETR1-Alexa Fluor 488 and LeEIN2-Alexa Fluor 568, 3 μM each)?
Answer: The value was “pronounced inhibition in FRET efficiency; also recorded: leads to a reduced FRET from LeETR1-Alexa Fluor 488 to LeEIN2-Alexa Fluor 568; also recorded: able to efficiently disrupt EIN2-ETR1 complex formation in tomato; also recorded: specific disruption of the tomato EIN2-ETR1 complex”.

Question: And the “delay in fruit ripening (Fig. 3c)” value ([1]; 200 μM, surface-treated, incubated or injected, versus untreated fruits)?
Answer: Its value is “at least 5 days”.

Question: And the “delay in maturation of tomato fruits” value ([1]; 200 μM, all tested inhibitors and all applications of NOP-1 (injection, incubation, surface application), documented for 20 days, three fruits per application)?
Answer: Its value is 10 to 15 days.

Question: What about the “delay in maturation by application form (in words)” value ([1]; 200 μM, surface application compared with incubation and injection) of the same compound?
Answer: Its value is “Delay in maturation process is most evident for fruit surface application”.

Question: And the “effect on tomato fruit ripening (in words)” value ([1]; compared with buffer or untreated control, inhibitors at 200 μM)?
Answer: The value was “delays ripening similar to known inhibitors of ethylene perception (MCP) and ethylene biosynthesis (AVG)”.

Question: And the “penetration of fruit surface / uptake (in words)” value ([1]; inferred from ripening delay after surface application, 200 μM)?
Answer: Its value is “can easily penetrate the surface tissue of the tomatoes and is taken up by the fruits; also recorded: seems to penetrate the exocarp and is taken up by the fruits”.

Question: What about the “delay in ripening by injection (in words)” value ([1]; injection into the fruits, initial experiments) of the same compound?
Answer: Its value is “less pronounced delay in ripening”.

Question: And the “delay in fruit ripening (Fig. 3a)” value ([1]; surface-treated, 200 μM, versus untreated control fruits)?
Answer: The value was “at least 15 days”.

Question: And the “effect on EIN2-ETR1 interaction in Arabidopsis” value (Arabidopsis EIN2-ETR1)?
Answer: The value was “reduced or abolished EIN2-ETR1 interaction; also recorded: able to disrupt interaction of EIN2 and ETR1”.

Question: What about the IC50 (Arabidopsis EIN2-ETR1; read-out: IC50 for inhibition of EIN2-ETR1 interaction in Arabidopsis) of the same compound?
Answer: The IC50 was 93 µM.
